Several values for one entry are separate records, joined by “and”; a condition that tells them apart may be missing. Equal entries are not always repeated. One block for each molecule: values may come before it.
System: 885724-159-R-J1-PDC complex spheroid viability
Assay: Anticancer human tumor 885724-159-R-J1-PDC patient-derived pancreatic adenocarcinoma cell line growth inhibition [GQUAD]
Settings: for viability, T/C: stronger effect = lower value
From the text: DNA G-quadruplex Stabilizer Agents in Combinations in Complex Spheroids
A high-throughput screen of multi-cell type tumor spheroids was designed to identify active combinations of DNA G-quadruplex stabilizer agents and targeted small molecules. Complex spheroids include a stromal component modeled by human endothelial cells (HUVEC) and fibroblasts modeled by human mesenchymal stem cells (MSCs). The concentration ranges selected for each drug and investigational agent were based upon clinically achievable concentrations if the clinical Cmax of the agent was known.
Compounds. The drugs and investigational agents: pidnarulex (CX-5461; NSC782164), APTO-253 (NSC789042), BRACO-19 (NSC847499), peposertib (NSC802822), ceralasertib (NSC780249), elimusertib (NSC800525), camonsertib (NSC841442), AZD-1390 (NSC803789), olaparib (NSC753686), talazoparib (NSC767125), ART-558 (NSC835418), sotorasib (NSC818433), MRTX-1133 (NSC836407), SN-38 (NSC673596), topotecan (NSC609699), etoposide (NSC141540), doxorubicin (NSC123127), gemcitabine (NSC613327), 5-fluorouracil (NSC19893), paclitaxel (NSC125973), vemurafenib (NSC761431), panobinostat (NSC761190), R-306465 (JNJ-16241199; NSC773264), adavosertib (NSC754352), TP-3654 (NSC805149), carboplatin (NSC241240), KSQ-4279 (NSC840948), and staurosporine (NSC755774) were obtained from the National Cancer Institute (NCI) Developmental Therapeutics Program Chemical Repository (34). The FDA-approved anticancer drug set is available from the NCI Developmental Therapeutics Program. […] The stock solutions were prepared in dimethyl sulfoxide (DMSO, Sigma-Aldrich, St. Louis, MO, cat. D2650) at 800-fold the tested concentration and stored at -70 degrees C prior to their use. All drugs and investigational agents were tested over a range starting from a high concentration at or near the clinical Cmax and decreasing in half-log increments. If the clinical Cmax for an agent had not been determined, the highest concentration tested was 10 microM.
2.3 Cell Culture. All cells were maintained in an incubator at 37 degrees C and 5% CO2 with 95% humidity. The PDC lines were cultured according to standard operating procedures established by the NCI PDMR. All PDCs were thawed and cultured in Matrigel-coated flasks prepared with a working solution of 1X Ham's F-12 nutrient mix, without supplementation (Invitrogen, cat. 11765054), 100 U/mL penicillin-streptomycin (Invitrogen, cat. 15140122), and 2.5% Matrigel (Corning Inc., cat. 354248) for the first three passages. The 857933-349-R-J2-PDC line was cultured in 6C/Colon 1B media, which includes advanced DMEM/F-12 (Thermo Fisher Scientific, cat. 12634028), 10 mM HEPES (Thermo Fisher Scientific, cat. 15630080), 1X GlutaMAX supplement (Thermo Fisher Scientific, cat. 35050061), 0.1 mg/mL primocin (InvivoGen, cat. ant-pm-2), 10% defined fetal bovine serum, heat inactivated (HyClone Laboratories Inc., cat. SH30070.03HI), 50% L-WRN conditioned media (ATCC, cat. CRL-3276), 1.25 mM N-Acetyl-L-cysteine (Sigma-Aldrich, cat. A9165), 10 mM nicotinamide (Sigma-Aldrich, cat. N0636), 1X B-27 supplement (Thermo Fisher Scientific, cat. 17504044), 1X N-2 supplement (Thermo Fisher Scientific, cat. 17502048), 10 microM Y-27632 dihydrochloride (Tocris Bioscience, cat. 1254), and 50 ng/mL human EGF recombinant protein (Thermo Fisher Scientific, cat. PHG0311). The 485176-168-R4-J1-PDC line was cultured in Panc media, which includes all 6C/Colon 1B media components plus 100 ng/mL human FGF-10 (Thermo Fisher Scientific, cat. 100-26), 500 nM SB-431542 (Selleckchem, cat. S1067), and gastrin (Tocris, cat. 3006).
[…]

[1] = curve of first compound, second compound 0.0316 µM
[2] = curve of first compound, second compound 0.1 µM
[3] = curve of first compound, second compound 0.316 µM
[4] = curve of first compound, second compound 1 µM
[5] = curve of first compound, second compound 3.16 µM
[6] = curve of first compound, second compound 10 µM
[7] = second compound 0.0316 µM, first compound 0.0316 µM
[8] = second compound 0.0316 µM, first compound 0.1 µM
[9] = second compound 0.0316 µM, first compound 0.316 µM
[10] = second compound 0.0316 µM, first compound 1 µM
[11] = second compound 0.0316 µM, first compound 3.16 µM
[12] = second compound 0.0316 µM, first compound 10 µM
[13] = second compound 0.1 µM, first compound 0.0316 µM
[14] = second compound 0.1 µM, first compound 0.1 µM
[15] = second compound 0.1 µM, first compound 0.316 µM
[16] = second compound 0.1 µM, first compound 1 µM
[17] = second compound 0.1 µM, first compound 3.16 µM
[18] = second compound 0.1 µM, first compound 10 µM
[19] = second compound 0.316 µM, first compound 0.0316 µM
[20] = second compound 0.316 µM, first compound 0.1 µM
[21] = second compound 0.316 µM, first compound 0.316 µM
[22] = second compound 0.316 µM, first compound 1 µM
[23] = second compound 0.316 µM, first compound 3.16 µM
[24] = second compound 0.316 µM, first compound 10 µM
[25] = second compound 1 µM, first compound 0.0316 µM
[26] = second compound 1 µM, first compound 0.1 µM
[27] = second compound 1 µM, first compound 0.316 µM
[28] = second compound 1 µM, first compound 1 µM
[29] = second compound 1 µM, first compound 3.16 µM
[30] = second compound 1 µM, first compound 10 µM
[31] = second compound 3.16 µM, first compound 0.0316 µM
[32] = second compound 3.16 µM, first compound 0.1 µM
[33] = second compound 3.16 µM, first compound 0.316 µM
[34] = second compound 3.16 µM, first compound 1 µM
[35] = second compound 3.16 µM, first compound 3.16 µM
[36] = second compound 3.16 µM, first compound 10 µM
[37] = second compound 10 µM, first compound 0.0316 µM
[38] = second compound 10 µM, first compound 0.1 µM
[39] = second compound 10 µM, first compound 0.316 µM
[40] = second compound 10 µM, first compound 1 µM
[41] = second compound 10 µM, first compound 3.16 µM
[42] = second compound 10 µM, first compound 10 µM
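Note: spheroids exposed to agents for seven days before readout.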
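Throughout, for viability, T/C: percent of vehicle control viability where 100% = DMSO wells.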

IC50 [1]: > 10 µM | IC50 [2]: > 10 µM | IC50 [3]: > 10 µM | IC50 [4]: > 10 µM | IC50 [5]: > 10 µM | IC50 [6]: > 10 µM
Compound: CC(=O)O[C@H]1C(=O)[C@@]2(C)[C@H]([C@H](OC(=O)c3ccccc3)[C@]3(O)C[C@H](OC(=O)[C@H](O)[C@@H](NC(=O)c4ccccc4)c4ccccc4)C(C)=C1C3(C)C)[C@]1(OC(C)=O)CO[C@@H]1C[C@@H]2O + Cc1cnc(CNC(=O)c2c(=O)c3ccc(N4CCCN(C)CC4)nc3n3c2sc2ccccc23)cn1
viability, T/C [7]: 103% | viability, T/C [8]: 97.3% | viability, T/C [9]: 96.9% | viability, T/C [10]: 108% | viability, T/C [11]: 104% | viability, T/C [12]: 107% | viability, T/C [13]: 111% | viability, T/C [14]: 105% | viability, T/C [15]: 99.3% | viability, T/C [16]: 119% | viability, T/C [17]: 113% | viability, T/C [18]: 108% | viability, T/C [19]: 110% | viability, T/C [20]: 114% | viability, T/C [21]: 107% | viability, T/C [22]: 88.7% | viability, T/C [23]: 118% | viability, T/C [24]: 105% | viability, T/C [25]: 95.9% | viability, T/C [26]: 93.3% | viability, T/C [27]: 98.9% | viability, T/C [28]: 93.6% | viability, T/C [29]: 106% | viability, T/C [30]: 86% | viability, T/C [31]: 77% | viability, T/C [32]: 78.6% | viability, T/C [33]: 84.9% | viability, T/C [34]: 79.5% | viability, T/C [35]: 88.8% | viability, T/C [36]: 99.6% | viability, T/C [37]: 66% | viability, T/C [38]: 68.7% | viability, T/C [39]: 78.4% | viability, T/C [40]: 78.8% | viability, T/C [41]: 74.1% | viability, T/C [42]: 70.1%

IC50 (curve of compound): > 0.316 µM
Compound: Cn1ncnc1[C@H]1c2n[nH]c(=O)c3cc(F)cc(c23)N[C@@H]1c1ccc(F)cc1
viability, T/C (compound 0.000999 µM): 93.4% and 97.4% and 94.5% | viability, T/C (compound 0.00316 µM): 108% and 94.8% and 82.2% | viability, T/C (compound 0.00999 µM): 87.3% and 97.6% and 97.2% | viability, T/C (compound 0.0316 µM): 92.5% and 97.9% and 93.9% | viability, T/C (compound 0.0999 µM): 88.5% and 97.7% and 103% | viability, T/C (compound 0.316 µM): 89.2% and 88% and 94.4%

IC50 (compound alone, run of 02/20/2024): > 10 µM
Compound: Cc1cnc(CNC(=O)c2c(=O)c3ccc(N4CCCN(C)CC4)nc3n3c2sc2ccccc23)cn1
viability, T/C (compound 0.316 µM): 98.5% [middle of 12 runs] | viability, T/C (compound 1 µM): 87.6% [middle of 11 runs] | viability, T/C (compound 3.16 µM): 80.1% [middle of 12 runs] | viability, T/C (compound 10 µM): 77.7% [middle of 12 runs]

IC50 (curve of compound): 0.859 µM and 0.726 µM and 0.723 µM
Compound: O=C(NO)c1cnc(N2CCN(S(=O)(=O)c3ccc4ccccc4c3)CC2)nc1
viability, T/C (compound 0.0316 µM): 90.6% and 97.6% and 84% | viability, T/C (compound 0.1 µM): 98.7% and 96.6% and 80% | viability, T/C (compound 0.316 µM): 94.2% and 85.3% and 72% | viability, T/C (compound 1 µM): 43.3% and 36.8% and 41.2% | viability, T/C (compound 3.16 µM): 1.62% and 0.69% and 11.8% | viability, T/C (compound 10 µM): 0.25% and 0.51% and 0.27%

IC50 [1]: > 10 µM | IC50 [2]: > 10 µM | IC50 [3]: > 10 µM | IC50 [4]: > 10 µM | IC50 [5]: > 10 µM | IC50 [6]: > 10 µM
Compound: C=CCn1c(=O)c2cnc(Nc3ccc(N4CCN(C)CC4)cc3)nc2n1-c1cccc(C(C)(C)O)n1 + Cc1cnc(CNC(=O)c2c(=O)c3ccc(N4CCCN(C)CC4)nc3n3c2sc2ccccc23)cn1
viability, T/C [7]: 105% | viability, T/C [8]: 106% | viability, T/C [9]: 100% | viability, T/C [10]: 97.1% | viability, T/C [11]: 78.4% | viability, T/C [12]: 91.5% | viability, T/C [13]: 109% | viability, T/C [14]: 132% | viability, T/C [15]: 99.7% | viability, T/C [16]: 93.9% | viability, T/C [17]: 85.9% | viability, T/C [18]: 83.3% | viability, T/C [19]: 106% | viability, T/C [20]: 102% | viability, T/C [21]: 100% | viability, T/C [22]: 91.1% | viability, T/C [23]: 89.9% | viability, T/C [24]: 90% | viability, T/C [25]: 100% | viability, T/C [26]: 78.2% | viability, T/C [27]: 82.8% | viability, T/C [28]: 75.3% | viability, T/C [29]: 79.2% | viability, T/C [30]: 96.8% | viability, T/C [31]: 73.1% | viability, T/C [32]: 65.4% | viability, T/C [33]: 69.8% | viability, T/C [34]: 67.8% | viability, T/C [35]: 71.5% | viability, T/C [36]: 69.2% | viability, T/C [37]: 58.9% | viability, T/C [38]: 70.4% | viability, T/C [39]: 56.4% | viability, T/C [40]: 58.3% | viability, T/C [41]: 69.8% | viability, T/C [42]: 62%

From PubChem BioAssay AID2060502 (Molecular Pharmacology Branch, DTP, NCI, 2025)
